Test results taken from patent US5283243A, “Piperidinoalkylbenzoxazine and piperidinoalkylbenzothiazine compounds, and medicaments containing them” (Kali-Chemie Pharma GmbH, priority 1990, dated 1994).

Legend:
[1] = system: Passive cutaneous anaphylaxis (PCA); assay: Inhibition of passive cutaneous anaphylaxis (PCA); assay type: in vivo, Sprague-Dawley rats; settings: Rattus norvegicus, 1 h; rats, 2 × 10^-5 mole/kg dose per os, one hour before ovalbumin challenge; read-out: % inhibition of Passive cutaneous anaphylaxis (PCA)
Method: (§1) 1. Determining Inhibition of Passive Cutaneous Anaphylaxis (PCA) and Histamine-Induced Anaphylactoid Cutaneous Reaction
The PCA reaction is carried out following the methods described by Goose et al. (J.N. Immunology 16 (1969), 749) and by Martin et al. (Arch. Pharmacol. 316 (1981), 186).
The IgE-rich ovalbumin antiserum used in the test was obtained from immunized Brown-Norway rats. The were immunized with an intraperitoneal injection of a mixture of 100 μg of ovalbumin with a Bordetella pertussis suspension (Vaxicoq™, Manufactured by Institute Merieux, containing 5×10^9 organisms and 1.25 mg Al(OH)3). After 20 days the animals were re-immunized with a further intraperitoneal injection of a solution of 10 μg ovalbumin in 0.5 ml physiological saline solution. After a further four days the blood was removed from the animals and centrifuged. The resulting antiserum was stored at -20° C. until use.
(§2) The inhibition of the passive cutaneous anaphylaxis and of the anaphylactoid cutaneous reaction induced by histamine was determined as follows:
Sprague-Dawley rats having a body weight of 150-180 g were injected intradermally in one flank with 50 μl of a 1:75 dilution of the IgE-rich ovalbumin antiserum in physiological saline solution to passively sensitize them to ovalbumin.
24 hours after sensitization a solution of 8.25 mg/kg of ovalbumin and 26.4 mg/kg of a blue dye (Evans's Blue) was administered to the rats intravenously according to Martin et al. to trigger passive cutaneous anaphylaxis.
(§3) On the day of the experiment the test substances were dissolved in distilled water which contained 1 vol. % dimethylformamide and 1 vol. % of Tween™ 20 (=polyoxyethylene (20) sorbitan monolaurate). One hour before administration of the ovalbumin challenge, each animal was orally administered 2×10^-5 mole/kg of test substance in 0.5 ml of solution. For comparison purposes a control group received only the solvent.
(§4) The edematous anaphylactic (PCA) and anaphylactoid (histamine-induced) reactions caused by the stimulation of the intravenous ovalbumin injection, which manifested themselves by edema formation, swelling and exudation of blue dye, were evaluated 30 minutes after their initiation by the intravenous ovalbumin injection. This was done by visually determining the extent to which the blue dye emerged at the sites of edema formation. The percentage inhibition of anaphylactic and anaphylactoid reactions induced by the test substances in comparison with the reactions of the control animals not treated with any test substance was determined using comparison scales.
(§5) The results obtained using compounds of formula I according to the foregoing test methods are shown in the following Table A. The example numbers given for the compounds of formula I relate to the subsequent preparative examples.

[2] = system: cyclooxygenase (6-keto-PGF1α release); assay: Cyclooxygenase inhibition: 6-keto-PGF1α release from zymosan-stimulated mouse peritoneal macrophage cells; assay type: cell-based; settings: Peritoneal macrophage cell; zymosan-stimulated mouse peritoneal macrophage cells, 10^-5 mole/l; read-out: In vitro % inhibition upon release of 6-keto-PGF1α
From the text: 5. In vitro Determination of Cyclooxygenase Inhibition and 5-Lipoxygenase Inhibition
After a cell is activated, arachidonic acid contained in cell membranes is metabolized in two ways. Leucotrienes, inter alia leucotriene C4, are formed due to the action of the enzyme 5-lipoxyqenase (=5-LO), and prostanoids are formed due to the action of the enzyme cyclooxygenase (=CO). In in vitro systems these metabolites are secreted from the cell.
To evaluate the cyclooxygenase-inhibiting and 5-lipoxygenase-inhibiting properties of the test substances, their inhibitory activity on the biosynthesis of the arachidonic acid derivatives leucotriene C4 (=LTC4) and 6-keto-prostaglandin F1α (=6-keto-PGF1 α) was determined in vitro on mouse peritoneal macrophage cells. For this purpose the LTC4 and 6-keto-PGF1 α contents of a mouse peritoneal macrophage cell culture medium were determined by zymosan stimulation as described by Scott et al. (J. Exp. Med. 152 (1980), 324-335) and by Fradin et al., (Prostaglandins, 33 (1987), 579-589).
A cell suspension containing peritoneal cells from male mice 8-10 weeks old was obtained in a known manner. A solution marketed under the designation RPMI 1640 (Manufactured by Gibco) was used as the cell culture medium, to which heparin (10 international units/ml) and antibiotics were added according to the procedure of Bonney et al. (Biochem. J. 176 (1978) 422-433). The cell suspension was adjusted to a cell concentration of 10^6 cells per ml and distributed uniformly on titer dishes containing 24 1-ml titer cells (wells). These were kept for two hours in a humidified incubator filled with air enriched with 7% CO2. Cells not adhering to the titer well walls were then removed by washing. The remaining macrophage cells adhering to the walls were incubated for about 12 hours in a suspension medium to which 0.1% of bovine serum albumin (BSA=Bovine Serum Albumin) was added. The suspension medium was then replaced by a Hanks salt solution (=Hanks Balanced Salt Solution=HBSS) with 10 mmoles of Hepes (=hydroxyethylpiperazinoethanesulfonic acid) to which a 0.1% strength solution of the test substances in aqueous, 1% strength dimethylformamide or only the solvent had been added. After 15 minutes the arachidonic acid metabolism was stimulated by adding […] of zymosan (=glycoprotein mixture isolated from cell walls of beer yeast, Saccharomyces cerevisiae, Manufactured by Sigma Chemical Co., Munich) per titre cell. After 2 hours samples of the respective supernatant liquid in each cell were examined for their 6-keto-PGF1α and LTC4 contents by an enzyme immunoassay (=EIA). This EIA is carried out following the method of Pradelles et al. (Analytical Chem. 57 (1985), 1170-1173). The determination of LTC4 and the determination of 6-keto-PGF1α were each carried out on suitable dilutions of the samples (1:50 to 1:250 for the LTC4 determination and 1:250 to 1:1,250 for the 6-keto-PGF1α determination) in comparison with a comparative scale. To determine the inhibiting effect of a 10^-5 molar concentration of the compounds, the amounts of reference eicosanoid were determined, and the inhibiting effect was calculated therefrom in % inhibition compared to the measurements of the zymosan controls.

[3] = system: Histamine-induced anaphylactoid reaction; assay: Inhibition of histamine-induced anaphylactoid cutaneous reaction; assay type: in vivo, Sprague-Dawley rats; settings: Rattus norvegicus, 1 h; rats, 2 × 10^-5 mole/kg dose per os, one hour before challenge; read-out: % inhibition of Histamine-induced anaphylactoid reaction
Method: as §1, §2
To determine the histamine-induced anaphylactoid skin reaction, the animals are injected intradermally in the flank opposite to the antiserum administration with 50 μl of a physiological saline solution containing 0.8 mg/ml histamine directly before the intravenous injection of the solution containing the ovalbumin and the blue dye.
as §3, §4, §5

**Q.** For O=C1Nc2ccccc2SC1CCCN1CCC(Nc2nc3ccccc3n2Cc2ccc(F)cc2)CC1 (stereo not drawn) [Example 8], which inhibition in vivo at 20 µmol/kg [1] is on record?
**A.** 100%

**Q.** What about the inhibition at 10 µM [2] of the same compound?
**A.** 40%

**Q.** What about the inhibition in vivo at 20 µmol/kg [3] of the same compound?
**A.** 100%
